In article PMC5099547 (British Journal of Clinical Pharmacology, 2016):
Marks after values point to notes of the source that are not given here. One block for each compound: values may come before it.

Tests used:
[1] = test system: OCT2; settings: cited from earlier work
[2] = test system: OATP1B1; settings: cited from earlier work
[3] = cited from earlier work
[4] = Safety and tolerability, all three studies; type: in vivo, human
[5] = Edoxaban-cyclosporine drug interaction study, plasma pharmacokinetics
[6] = cited from earlier work; remark: listed apart in the source
[7] = Edoxaban-ketoconazole drug interaction study, plasma pharmacokinetics
[8] = Edoxaban-erythromycin drug interaction study, plasma pharmacokinetics
[9] = test system: OAT1; settings: cited from earlier work
[10] = test system: OAT3; settings: cited from earlier work
[11] = test system: P‐gp; settings: Caco‐2 cell monolayers; transport strongly hindered by P‐gp inhibitors; cited from earlier work
[12] = test system: CYP3A4; settings: cited from earlier work
[13] = edoxaban + cyclosporine vs edoxaban alone
[14] = edoxaban + cyclosporine vs edoxaban alone, based on geometric LSM ratios
[15] = edoxaban + ketoconazole vs alone, reduced
[16] = edoxaban + erythromycin vs edoxaban alone
[17] = erythromycin study, edoxaban 60 mg alone, mean ± SD, n = 32

increase in peak exposure [5, 13]: approximately 1.7 fold
increase in total exposure [5, 13]: approximately 1.7 fold
increase in peak exposure (Cmax) [5, 14]: 74%
increase in total exposure (AUC) [5, 14]: 73%
AUC(0-inf) ([5]; human, in vivo, 60 mg): 1830 ± 363 ng·h/mL
Tmax ([5]; human, in vivo, 60 mg): 1.5 h
half-life ([5]; human, in vivo, 60 mg): 14.5 ± 5.34 h
change in clearance [7, 15]: approximately 46%
change in volume of distribution [7, 15]: approximately 46%
increase in total exposure (AUC) ([7]; edoxaban + ketoconazole vs edoxaban alone): 87%
half-life ([7]; human, in vivo): ~11.5 h
AUC(0-inf) ([7]; human, in vivo, 60 mg): 1650 ± 412 ng·h/mL
half-life ([7]; human, in vivo, 60 mg): 11.9 ± 4.11 h
Cmax ([7]; human, in vivo, po, 60 mg): 245 ± 86.9 ng/mL
decrease in apparent volume of distribution [8, 16]: 63%
decrease in total apparent clearance [8, 16]: about 47%
increase in total exposure (AUC) [8, 16]: 85%
AUC (extrapolated to infinity) [8, 17]: 1740 ± 443.7 ^b ng h ml^–1
t1/2 [8, 17]: 10.24 ± 3.71 ^b h
Cmax ([8]; human, in vivo, po, 60 mg): 259 ± 100 ng/mL
SMILES: CN1CCc2nc(C(=O)N[C@@H]3C[C@@H](C(=O)N(C)C)CC[C@@H]3NC(=O)C(=O)Nc3ccc(Cl)cn3)sc2C1 [Edoxaban]
substrate of OCT2 [1]: not a substrate
substrate of OATP1B1 [2]: not a substrate
increase in total exposure with quinidine ([3]; intravenous dosing of edoxaban): about 35%
increase in exposure with quinidine ([3]; oral edoxaban): about 68%
serious adverse events [4]: No serious adverse events
tolerability ([4]; alone or in combination with ketoconazole, erythromycin, or cyclosporine): well tolerated
metabolism via CYP3A4, share of total clearance [6]: < 4%
oral (absolute) bioavailability [6]: 62%
substrate of OAT1 [9]: not a substrate
substrate of OAT3 [10]: not a substrate
transport via P‐gp [11]: transported via P‐gp

SMILES: CC(=O)N1CCN(c2ccc(OCC3COC(Cn4ccnc4)(c4ccc(Cl)cc4Cl)O3)cc2)CC1 (centres unmarked) [ketoconazole]
degree of CYP3A4 inhibitory activity [12]: strong
